Each structure is given as a SMILES string.

This assay concerns Sweetpotato whitefly (Bemisia tabaci). Kind of assay: Action on Sweetpotato whitefly (Bemisia tabaci) on soybean plants, greenhouse foliar spray. The following applies: for Mean whitefly nymph response (Whitefly Nymphs D.A.A.-2): dose 60 ppm a.i. (text: 60 g a.i./ha, 200 L/ha), two applications 7 days apart, whole plant counts 3 days after 2nd application, greenhouse. The class given is in vivo. Here is the method: The active compound tested was formulated as a SL-type formulation.
Action on Sweetpotato whitefly (Bemisia tabaci)
A randomized block, 2 by 3 factorial experimental design was utilized to determine the interaction effects and main effects of two explanatory variables: product rate and soybean variety on the response variable, whitefly mortality. The study was conducted under greenhouse conditions and utilized lntacta™ (Bt-traited) and ‘BMX Potencia’ (non-traited) varieties at growth stage 11, respectively. All study plants were infested with Bemisia tabaciadults prior to application.
Formulated material of compound I-1 was combined with water and applied at concentration of 60 gai/ha with a CO2 pressurized spray boom at 200 L/ha water volume. The first application was timed to a threshold whitefly infestation, and was followed by a second application 7 days later.
Assessments were conducted by taking whole plant counts of adult and immature whiteflies at 3 days after the second application.

In the case of `CCN(C(=O)c1cnn(C(C)C(C)C)c1C)c1ccnnc1` (stereo not drawn) [I-1, 1-(1,2-dimethylpropyl)-N-ethyl-5-methyl-N-pyridazin-4-yl-pyrazole-4-carboxamide], the “Effect against whiteflies in Intacta soybean relative to BMX Potencia” value (60 g a.i./ha, 3 days after second application, Intacta vs BMX Potencia soybean) is reported as “synergistic effect”. Further, the “Mean whitefly nymph response (Whitefly Nymphs D.A.A.-2)” value by setting is: (BMX Potencia (non-traited) soybean) 4.91; (Intacta (Bt-traited) soybean) 0.57.
